# Where a SMILES comes first, the peptide text is derived from it. Bridges are numbered along the chain shown (N, C = ends). [ ]: non-standard residue; d: D form. The star is where a group is joined. hPhe(3-Cl-4-CF3) = N[C@@H](CCc1ccc(C(F)(F)F)c(Cl)c1)C(=O)O; NPrPhe(4-CF3) = CCCN[C@@H](Cc1ccc(C(F)(F)F)cc1)C(=O)O; NMeGly(cPent) = CN[C@H](C(=O)O)C1CCCC1; NMeNva(3-Et) = CCC(CC)[C@H](NC)C(=O)O; Hyp = O=C(O)[C@@H]1C[C@@H](O)CN1; NMeD = CN[C@@H](CC(=O)O)C(=O)O; NMeL = CN[C@@H](CC(C)C)C(=O)O; Morpholide = C1CN(*)CCO1; NMeA = CN[C@@H](C)C(=O)O; Ac5c = NC1(C(=O)O)CCCC1; Aze = O=C(O)[C@@H]1CCN1; Ac4c = NC1(C(=O)O)CCC1; NEtG = CCNCC(=O)O; Sar = CNCC(=O)O
# Experiments:
# [1] = test system: human lung cancer strain NCI-H441; assay type: cell-based
# Procedure, shortened: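 Step one: dispense the test compound in serial DMSO dilutions. Step three: add the reagent and measure […].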
# [2] = target: GDP-bound NRAS wild-type protein (Homo sapiens, UniProt P01111); assay: Binding to NRAS by surface plasmon resonance (SPR), KD and KD ratio to KRAS
# Chain of GDP-bound NRAS wild-type protein (P01111 whole entry): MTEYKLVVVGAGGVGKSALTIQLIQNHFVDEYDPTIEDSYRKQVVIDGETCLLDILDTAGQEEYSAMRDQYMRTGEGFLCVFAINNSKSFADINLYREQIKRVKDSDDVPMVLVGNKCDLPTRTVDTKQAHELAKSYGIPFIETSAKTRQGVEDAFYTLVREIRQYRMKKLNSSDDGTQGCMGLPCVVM
# Procedure, shortened: (§1)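 Captured GDP-RAS (~100–300 RU) was exposed to increasing compound concentrations, 75 s per step, in running buffer with 10 µM GDP, 10 mM MgCl2 and 4% DMSO at pH 7.4.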
# HRAS wild-type protein = HRAS wild-type protein (Homo sapiens, UniProt P01112); assay: Binding to HRAS by surface plasmon resonance (SPR), KD and KD ratio to KRAS
# Chain of HRAS wild-type protein (P01112 whole entry): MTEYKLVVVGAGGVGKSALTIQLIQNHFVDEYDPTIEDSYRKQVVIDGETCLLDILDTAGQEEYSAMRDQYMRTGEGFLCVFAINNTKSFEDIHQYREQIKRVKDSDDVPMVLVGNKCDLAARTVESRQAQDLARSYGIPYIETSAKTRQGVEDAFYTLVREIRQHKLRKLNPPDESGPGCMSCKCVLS
# Procedure, shortened: as §1
# [3] = ratio of the KD value with respect to GDP-bound NRAS wild-type protein to the KD value with respect to KRAS
# [4] = ratio of the KD value with respect to HRAS wild-type protein to the KD value with respect to KRAS
# [5] = ratio of KD for GDP-bound NRAS wild-type protein to KD for KRAS
# [6] = ratio of KD for HRAS wild-type protein to KD for KRAS
# [7] = ratio of KD value for GDP-bound NRAS wild-type protein to KD value for KRAS (SPR)
# [8] = ratio of KD value for HRAS wild-type protein to KD value for KRAS (SPR)
smiles,measurement,setting,value
CCCN1C(=O)CN(C)C(=O)CN(C)C(=O)[C@H]([C@@H](C)CC)NC(=O)[C@H](CC(C)C)N(C)C(=O)C[C@@H](C(=O)N2CCOCC2)N(C)C(=O)[C@H](C(CC)CC)N(C)C(=O)C2(CCC2)NC(=O)[C@@H]2CCCN2C(=O)[C@H](CCc2ccc(C(F)(F)F)c(Cl)c2)NC(=O)CN(C)C(=O)[C@@H]1Cc1ccc(C(F)(F)F)cc1 [PP1958] ([NMeL]I[Sar][Sar][NPrPhe(4-CF3)][Sar][hPhe(3-Cl-4-CF3)]P[Ac4c][NMeNva(3-Et)][NMeD]-Morpholide; lactam N-11),IC50,[1],57.8 nM
same,NRAS /KRAS,[2]; [3],B (a compound having 3 or more and less than 10 is denoted as B)
same,HRAS /KRAS,HRAS wild-type protein; [4],B (a compound having 3 or more and less than 10 is denoted as B)
CCCN(C)C(=O)[C@@H]1CC(=O)N(C)[C@@H](CCOC)C(=O)N[C@@H]([C@@H](C)CC)C(=O)N(C)CC(=O)N(C)[C@H]2C/C=C\CCN(C2=O)[C@@H](Cc2ccc(C(F)(F)F)cc2)C(=O)N(C)CC(=O)N[C@@H](CCc2ccc(C(F)(F)F)c(OC)c2)C(=O)N2C[C@@H](C)C[C@H]2C(=O)NC2(CC(C)(C)C2)C(=O)N(C)[C@@H](C2CCCC2)C(=O)N1C [PP2001],IC50,[1],18.1 nM
same,NRAS /KRAS,[2]; [3],A (a compound having 10 or more and less than 20 is denoted as A)
same,HRAS /KRAS,HRAS wild-type protein; [4],A (a compound having 10 or more and less than 20 is denoted as A)
CCO[C@@H]1C[C@H]2C(=O)NC3(CCC3)C(=O)N(C)[C@@H](C3CCCC3)C(=O)N(C)[C@H](C(=O)N(C)C)CC(=O)N(C)[C@@H](CC)C(=O)N[C@@H]([C@@H](C)CC)C(=O)N(C)CC(=O)N(C)[C@H]3CCCCCN(C3=O)[C@@H](Cc3ccc(F)c(OC)c3)C(=O)N(C)CC(=O)N[C@@H](CCc3cc(F)c(C(F)(F)F)c(F)c3)C(=O)N2C1 [PP0915],IC50,[1],37.6 nM
same,NRAS /KRAS,[2]; [5],B (a compound having 3 or more and less than 10 is denoted as B)
same,HRAS /KRAS,HRAS wild-type protein; [6],B (a compound having 3 or more and less than 10 is denoted as B)
CCO[C@@H]1C[C@H]2C(=O)N(C)C3(CCC3)C(=O)N(C)[C@@H](C(CC)CC)C(=O)N(C)[C@H](C(=O)N(C)C)CC(=O)N(C)[C@@H](COC)C(=O)N[C@@H]([C@@H](C)CC)C(=O)N(C3CC3)CC(=O)N(C)[C@H]3C/C=C\CCN(C3=O)[C@@H](CC3CCCCC3)C(=O)N(C)CC(=O)N[C@@H](CCc3ccc(C(F)(F)F)c(OC)c3)C(=O)N2C1 [PP2339],IC50,[1],59.3 nM
same,NRAS /KRAS,[2]; [3],A (a compound having 10 or more and less than 20 is denoted as A)
same,HRAS /KRAS,HRAS wild-type protein; [4],A (a compound having 10 or more and less than 20 is denoted as A)
CCO[C@@H]1C[C@H]2C(=O)NC3(CCC3)C(=O)N(C)[C@@H](C3CCCC3)C(=O)N(C)[C@H](C(=O)N(C)C)CC(=O)N(C)[C@@H](CC)C(=O)N[C@@H]([C@@H](C)CC)C(=O)N(C)CC(=O)N(C)[C@H]3CCCCN(C3=O)[C@@H](Cc3ccc(C(F)(F)F)cc3)C(=O)N(C)CC(=O)N[C@@H](CCc3cc(F)c(C(F)(F)F)c(F)c3)C(=O)N2C1 [PP0693],IC50,[1],3.8 nM
same,NRAS /KRAS,[2]; [3],C (A compound having a KD ratio of 0.1 or more and less than 3 is denoted as C)
same,HRAS /KRAS,HRAS wild-type protein; [4],C (A compound having a KD ratio of 0.1 or more and less than 3 is denoted as C)
CCO[C@@H]1C[C@H]2C(=O)NC3(CC(C)(C)C3)C(=O)N(C)[C@@H](C3CCCC3)C(=O)N(C)[C@H](C(=O)N(CC)CC)CC(=O)N(C)[C@@H](CC)C(=O)N[C@@H]([C@@H](C)CC)C(=O)N(C)CC(=O)N(C)[C@H]3C/C=C\CCN(C3=O)[C@@H](Cc3ccc(C)cc3)C(=O)N(C)CC(=O)N[C@@H](CCc3ccc(C(F)(F)F)c(Cl)c3)C(=O)N2C1 [PP1883],IC50,[1],24 nM
same,NRAS /KRAS,[2]; [7],A (a compound having 10 or more and less than 20 is denoted as A)
same,HRAS /KRAS,HRAS wild-type protein; [8],A (a compound having 10 or more and less than 20 is denoted as A)
CCCN1C(=O)CN(C)C(=O)CN(C)C(=O)[C@H]([C@@H](C)CC)NC(=O)[C@H](CC(C)C)N(C)C(=O)C[C@@H](C(=O)N(C)C)N(C)C(=O)[C@H](C2CCCC2)N(C)C(=O)C2(CCC2)NC(=O)[C@@H]2CCCN2C(=O)[C@H](CCc2ccc(C(F)(F)F)c(Cl)c2)NC(=O)CN(C)C(=O)[C@@H]1Cc1ccc(C(F)(F)F)cc1 [PP0412] ([NMeL]I[Sar][Sar][NPrPhe(4-CF3)][Sar][hPhe(3-Cl-4-CF3)]P[Ac4c][NMeGly(cPent)][NMeD]-NMe2; lactam N-11),IC50,[1],1.8 nM
same,NRAS /KRAS,[2]; [3],B (a compound having 3 or more and less than 10 is denoted as B)
same,HRAS /KRAS,HRAS wild-type protein; [4],C (A compound having a KD ratio of 0.1 or more and less than 3 is denoted as C)
CCC[C@H]1C(=O)N[C@@H]([C@@H](C)CC)C(=O)N(CCC)CC(=O)N(C)[C@H]2C/C=C\CCN(C2=O)[C@@H](Cc2ccc(C(F)(F)F)cc2)C(=O)N(C)CC(=O)N[C@@H](CCc2cc(F)c(C(F)(F)F)c(F)c2)C(=O)N2C[C@H](OCC)C[C@H]2C(=O)NC2(CCC2)C(=O)N(C)[C@@H](C2CCCC2)C(=O)N(C)[C@H](C(=O)N(C)C)CC(=O)N1C [PP1767],IC50,[1],17.9 nM
same,NRAS /KRAS,[2]; [7],A (a compound having 10 or more and less than 20 is denoted as A)
same,HRAS /KRAS,HRAS wild-type protein; [8],B (a compound having 3 or more and less than 10 is denoted as B)
CC[C@H](C)[C@@H]1NC(=O)[C@H](CC(C)C)N(C)C(=O)C[C@@H](C(=O)N2CCOCC2)N(C)C(=O)[C@H](C2CCCC2)N(C)C(=O)C2(CCC2)NC(=O)[C@@H]2CCCN2C(=O)[C@H](CCc2ccc(C(F)(F)F)c(Cl)c2)NC(=O)CN(C)C(=O)[C@H](Cc2ccc(F)cc2)N2CCCCC[C@@H](C2=O)N(C)C(=O)CN(C)C1=O [PP0967],IC50,[1],77.7 nM
same,NRAS /KRAS,[2]; [5],B (a compound having 3 or more and less than 10 is denoted as B)
same,HRAS /KRAS,HRAS wild-type protein; [6],B (a compound having 3 or more and less than 10 is denoted as B)
CC[C@H](C)[C@@H]1NC(=O)[C@H](CC)N(C)C(=O)C[C@@H](C(=O)N(C)C)N(C)C(=O)[C@H](C2CCCC2)N(C)C(=O)C2(CCC2)N(C)C(=O)[C@@H]2C[C@@H](C)CN2C(=O)[C@H](CCc2cc(F)c(C(F)(F)F)c(F)c2)NC(=O)CN(C)C(=O)[C@H](Cc2ccc(C)cc2)N2CC/C=C\C[C@@H](C2=O)N(C)C(=O)[C@@H]2CCCN2C1=O [PP1789],IC50,[1],9.5 nM
same,NRAS /KRAS,[2]; [7],A (a compound having 10 or more and less than 20 is denoted as A)
same,HRAS /KRAS,HRAS wild-type protein; [8],A (a compound having 10 or more and less than 20 is denoted as A)
CC[C@H](C)[C@@H]1NC(=O)[C@H](CC)N(C)C(=O)C[C@@H](C(=O)N(C)C)N(C)C(=O)[C@H](C2CCCC2)N(C)C(=O)C2(CCC2)NC(=O)[C@@H]2C[C@H](OC)CN2C(=O)[C@H](CCc2cc(F)c(C(F)(F)F)c(F)c2)NC(=O)CN(C)C(=O)[C@H](Cc2ccc(C(F)(F)F)cc2)N2CC/C=C\C[C@@H](C2=O)N(C)C(=O)CN(C)C1=O [PP1128],IC50,[1],121 nM
same,NRAS /KRAS,[2]; [5],AA (a compound having 20 or more is denoted as AA)
same,HRAS /KRAS,HRAS wild-type protein; [6],A (a compound having 10 or more and less than 20 is denoted as A)
CCCN1C(=O)[C@@H]2CCN2C(=O)[C@H](C)N(C)C(=O)[C@H]([C@@H](C)CC)NC(=O)[C@H](CC(C)C)NC(=O)C[C@@H](C(=O)N2CCOCC2)N(C)C(=O)[C@H](C2CCCC2)N(C)C(=O)C2(CCCC2)NC(=O)[C@@H]2CCCN2C(=O)[C@H](CCc2ccc(C(F)(F)F)c(Cl)c2)NC(=O)CN(C)C(=O)[C@@H]1Cc1ccc(C(F)(F)F)cc1 [PP0154] (LI[NMeA][Aze][NPrPhe(4-CF3)][Sar][hPhe(3-Cl-4-CF3)]P[Ac5c][NMeGly(cPent)][NMeD]-Morpholide; lactam N-11),IC50,[1],9.9 nM
same,NRAS /KRAS,[2]; [5],C (A compound having a KD ratio of 0.1 or more and less than 3 is denoted as C)
same,HRAS /KRAS,HRAS wild-type protein; [6],B (a compound having 3 or more and less than 10 is denoted as B)
CCCN1C(=O)[C@@H]2CCN2C(=O)[C@H](C)N(C)C(=O)[C@H]([C@@H](C)CC)NC(=O)[C@H](CC(C)C)N(C)C(=O)C[C@@H](C(=O)N2CCOCC2)NC(=O)[C@H](C2CCCC2)N(C)C(=O)C2(CCCC2)NC(=O)[C@@H]2C[C@@H](OCC)CN2C(=O)[C@H](CCc2ccc(C(F)(F)F)c(Cl)c2)NC(=O)CN(C)C(=O)[C@@H]1Cc1ccc(C(F)(F)F)cc1 [PP0347] ([NMeL]I[NMeA][Aze][NPrPhe(4-CF3)][Sar][hPhe(3-Cl-4-CF3)][Hyp](Et)[Ac5c][NMeGly(cPent)]D-Morpholide; lactam N-11),IC50,[1],10.9 nM
same,NRAS /KRAS,[2]; [5],C (A compound having a KD ratio of 0.1 or more and less than 3 is denoted as C)
same,HRAS /KRAS,HRAS wild-type protein; [6],B (a compound having 3 or more and less than 10 is denoted as B)
CCCN1C(=O)CN(C)C(=O)CN(CC)C(=O)[C@H]([C@@H](C)CC)NC(=O)[C@H](CC(C)C)N(C)C(=O)C[C@@H](C(=O)N(C)C)N(C)C(=O)[C@H](C2CCCC2)N(C)C(=O)C2(CCC2)NC(=O)[C@@H]2CCCN2C(=O)[C@H](CCc2ccc(C(F)(F)F)c(Cl)c2)NC(=O)CN(C)C(=O)[C@@H]1Cc1ccc(C(F)(F)F)cc1 [PP0424] ([NMeL]I[NEtG][Sar][NPrPhe(4-CF3)][Sar][hPhe(3-Cl-4-CF3)]P[Ac4c][NMeGly(cPent)][NMeD]-NMe2; lactam N-11),IC50,[1],9.5 nM
same,NRAS /KRAS,[2]; [3],B (a compound having 3 or more and less than 10 is denoted as B)
same,HRAS /KRAS,HRAS wild-type protein; [4],C (A compound having a KD ratio of 0.1 or more and less than 3 is denoted as C)
